Where “and” joins values, the source holds several entries; their conditions need not be identical. Equal values may be shown once.
Settings: Liquid

O=[Si] [silicon monooxide]
Settings | vapor or sublimation pressure
1301 K | 0.00029 kPa and 0.00016 kPa
1315 K | 0.0004 kPa and 0.00024 kPa
1325 K | 0.0005 kPa and 0.00032 kPa
1335 K | 0.00064 kPa and 0.0004 kPa
1350 K | 0.00088 kPa and 0.00089 kPa and 0.00057 kPa
1364 K | 0.00123 kPa and 0.00082 kPa
1374 K | 0.00155 kPa and 0.00152 kPa and 0.00103 kPa
1399 K | 0.0026 kPa and 0.00175 kPa
1421 K | 0.0042 kPa and 0.00287 kPa
1433 K | 0.0054 kPa and 0.0037 kPa
1446 K | 0.0071 kPa and 0.0048 kPa
1470 K | 0.0116 kPa and 0.0114 kPa and 0.0079 kPa
1495 K | 0.0185 kPa and 0.0177 kPa and 0.0127 kPa
1519 K | 0.029 kPa and 0.027 kPa and 0.0201 kPa

Reference: the NIST ThermoML archive (doi:10.1021/je800560b)
